Reference: publication PMC10384572, “Marine Meroterpenoids Isolated from Gongolaria abies-marina Induce Programmed Cell Death in Naegleria fowleri” (Pharmaceuticals, 2023)

What was measured:
N. fowleri ATCC® 30808 = assay: In vitro activity against N. fowleri trophozoites (alamarBlue), strain ATCC 30808; type: cell-based, Naegleria fowleri; conditions: for IC50: Naegleria fowleri, ATCC30808, N. fowleri trophozoites, 48 h, alamarBlue, mean ± SD, read-out: IC50 ATCC® 30808; for Anti-Naegleria activity (in words): both tested strains of N. fowleri
Protocol: (§1) The in vitro activity against N. fowleri trophozoites was evaluated in two different strains from the American Type Culture Collection (LG Promochem, Barcelona, Spain), ATCC® 30808™ and ATCC® 30215™. Cells were axenically grown in 2% Bactocasitone (w/v) medium (Thermo Fisher Scientific, Madrid, Spain) at 37 °C. Moreover, 10% (v/v) of fetal bovine serum (FBS) 0.3 μg/mL of Penicillin G Sodium Salt and 0.5 mg/mL of Streptomycin sulphate (Sigma-Aldrich, Madrid, Spain) were also added to the Bactocasitone medium.
(§2) For these assays, a colorimetric assay was conducted using the alamarBlue® reagent. Briefly, N. fowleri trophozoites were seeded in duplicate in a 96-well microtiter plate. After that, different concentrations of the evaluated meroterpenoids diluted in fresh Bactocasitone were added to the wells. The negative control consisted on the trophozoites incubated with the medium alone. Lastly, the alamarBlue® (Life Technologies, Madrid, Spain) reagent was added. Plates were incubated in slight agitation at 37 °C. After 48 h, the fluorescence of the wells was analyzed in an EnSpire Multimode Plate Reader (Perkin Elmer, Madrid, Spain) using a wavelength of excitation of 570 nm and a wavelength of emission of 585 nm.
(§3) In order to calculate the IC50 and IC90, a nonlinear regression analysis with a 95% confidence limit was performed.
(§4) The in vitro IC50, IC90, and CC50 of the compounds were determined by a non-linear regression with a 95% confidence limit. The SigmaPlot 12.0 software (Systat Sofware Inc., London, UK) was used to perform the data analysis using a paired two-tailed t-test. Values of p < 0.05 were considered significant. The data represent the mean value and the SD of the conducted three different experiments.

N. fowleri ATCC® 30215 = assay: In vitro activity against N. fowleri trophozoites (alamarBlue), strain ATCC 30215; type: cell-based; conditions: Naegleria fowleri, ATCC30215, 48 h, mean ± SD
Protocol: as §1, §2, §3, §4

[1] = In vitro cytotoxicity against murine macrophages (alamarBlue); type: cell-based; conditions: mouse, J774A.1 murine macrophages (ATCC TIB-67), murine macrophages J774A.1, 24 h, mean ± SD
Protocol: Murine macrophages from the J774A.1 cell line (ATCC® TIB-67) were maintained in Dulbecco’s Modified Eagle’s medium (DMEM) in order to evaluate the toxicity of the compounds. In addition, 10% (v/v) FBS and 10 μg/mL gentamicin (Sigma-Aldrich, Madrid, Spain) were added to the growth medium. Cells were grown in a 5% CO2 atmosphere at 37 °C.
For the cytotoxicity assays, the same protocol as detailed in Section 4.4 above was used. Murine macrophages were incubated with serial dilutions of the evaluated compounds at 37 °C in a 5% CO2 atmosphere over 24 h. The obtained data were analyzed as described in the previous section in order to calculate the CC50.
as §4

Acanthamoeba = system: Acanthamoeba; set-up: method as in PMID 36916403; conditions: cited from earlier work

IC50 (N. fowleri ATCC® 30808) | IC50 (N. fowleri ATCC® 30215) | Structure (SMILES) | CC50 at 24 h [1] | Anti-Naegleria activity (in words) (N. fowleri ATCC® 30808) | Activity against tested species of Acanthamoeba (in words) (Acanthamoeba) | Anti-Naegleria activity (in words) (N. fowleri ATCC® 30808; listed as 5) | Anti-Naegleria activity (in words) (N. fowleri ATCC® 30808; listed as gongolarone C (5))
0.12 ± 0.03 µM | 0.16 ± 0.03 µM | C[C@@H]1[C@H](O)[C@@H](C)/C=C/C=C/C=C/C=C/C=C/C=C/C=C/[C@H](O[C@@H]2O[C@H](C)[C@@H](O)[C@H](N)[C@@H]2O)C[C@@H]2O[C@](O)(C[C@@H](O)C[C@@H](O)[C@H](O)CC[C@@H](O)C[C@@H](O)CC(=O)O[C@H]1C)C[C@H](O)[C@H]2C(=O)O [Amphotericin B, amphotericin B, reference compound] | > 200 µM |  |  |  | 
> 100 µM |  | COc1c(C)cc(O)cc1C/C=C(\C)CC(=O)/C=C(\C)CCC[C@@H](C)[C@H]1C[C@@H](O)C(C)(C)O1 [Gongolarone A (4), gongolarone A] | > 400 µM | no anti-Naegleria activity | most active |  | 
> 100 µM |  | COc1c(C)cc(O)cc1CC/C(C)=C/C(=O)/C=C(\C)CCC[C@@H](C)C(=O)/C=C/C(C)(C)O [Gongolarone C (5), gongolarone C] | > 400 µM |  | most active | no anti-Naegleria activity | loss of activity
38.7 ± 4.23 µM | 81.6 ± 7.23 µM | CCCCCCCCCCCCCCCCOP(=O)([O-])OCC[N+](C)(C)C [Miltefosine, miltefosine, reference compound] | 128 ± 8.85 µM |  |  |  | 
